Laboratory results as given in patent US5284999A, “DNA encoding a pituitary-specific thyroid hormone receptor” (Brigham and Women's Hospital, priority 1993, dated 1994).

Tested on: r-ErbAβ-2 protein (PSTHR, pituitary-specific thyroid hormone receptor)
Test: Competition experiments with thyroid hormone analogs on r-ErbAβ-2 protein
Format: binding, rat

affinity of the r-ErbAβ-2 protein (rank order among analogs): greatest
Compound: O=C(O)Cc1cc(I)c(Oc2ccc(O)c(I)c2)c(I)c1 [triac, 3,5,3'-triiodothyrocetic acid]
